Read-outs that look alike come from different tables or passages of the source.
Legend:
[1] = Human liver microsomes (HLMs) intrinsic clearance assay; type: in vitro ADME; conditions: for microsomal CLint at 1 µM: human, microsomes, pH 7.4, HLM CLint
Procedure: Human liver microsomes (HLMs) were obtained from Corning (UltraPool 150 donors) at a concentration of 20 mg/mL protein. HLMs were stored at −80° C. until use and prior to use, thawed in a 37° C. water bath and then stored on wet ice. DMSO and NADPH were sourced from Solarbio S&T Co Ltd.
2 mL of 10 mM DMSO stock solutions of test compound were added to 198 mL acetonitrile to produce […] concentration. 1325 mL of 20 mg/mL HLM were added to 22260 mL of phosphate buffer to produce the HLM mixture. An 8.334 mg/mL solution of NADPH was prepared in 100 mmol/L pH 7.4 phosphate buffer.
222.5 mL of the HLM mixture and 25 mL of the 10 mM NADPH were added into the incubation plates (1 mL 96 well deep well plate from Thermo). The mixture was vortexed for 10 seconds at 1000 rpm. The incubation plate was pre-warmed in a water bath at 37° C. for 8 minutes. 2.5 mL of the […] stocks of test compound was added to initiate the reaction. The mix was vortexed for 12 seconds at 1000 rpm and incubated at 37° C. The incubation mixture (250 mL) contained 1 mg/mL HLM, 1 mmol/L NADPH and […].
The reaction was quenched by transferring 20 mL of the incubation mixture at 0.5, 5, 10, 15, 20 and 30 minutes into the quenching plate containing 100 mL of cold stop solution (acetonitrile containing internal standards). The plate was vortexed at 800 rpm for 2 minutes.
The quenching plates were centrifuged for 20 minutes at 4000 rpm and 4° C. 40 mL of the supernatant was transferred into a 96-well analysis plate containing 160 mL of water. The analysis plate was shaken at 1000 rpm for 2 minutes and the samples analysed by LC-MS/MS.
Peak areas were determined from extracted ion chromatograms. Percent parent remaining was calculated from peak area of test compound. The slope value, k, was determined by linear regression of the natural logarithm of percent parent remaining versus incubation time. The in vitro half-life (t1/2) was determined from the slope value by the equation: […]
Conversion of the in vitro half-life (min) into in vitro CLint (mL/min/mg proteins) was completed using the equation: […]

hERG [2] = target: T1, hERG (Homo sapiens (Human), UniProt Q12809); test: hERG assay 1 (standard), SyncroPatch 384PE; type: cell-based; conditions: CHO cells, room temperature, up to 40 uM
Procedure: Experiments were performed on the SyncroPatch 384PE (Nanion Technologies) high throughput patch clamp platform at room temperature and used medium resistance chips with 4 patch holes per site. hERG-expressing Chinese hamster ovary K1 (CHO) cell line was used in assay-ready format and kept in liquid nitrogen until use. 2 vials of cells (10×10^6 cells per vial) were thawed and added to 20 ml Hepes-buffered saline solution (HBSS). HBSS comprised 140 mM NaCl, 4 mM KCl, 10 mM HEPES and 5 mM Glucose (pH 7.4). The internal patch clamp solution was KF 120 mM, KCl 20 mM, HEPES 10 mM, EGTA 10 mM, and 25 μM Escin (pH 7.2). After the initial sealing process was complete, a seal enhancer solution comprising HBSS supplemented with 10 mM CaCl2 and 1 mM MgCl2 was applied to cells. The external solution was then exchanged (4 times) for external patch clamp solution comprising NaCl 80 mM, KCl 4 mM, HEPES 10 mM, CaCl2 2 mM, MgCl2 1 mM, glucose 5 mM, and NMDG 60 mM (pH7.4). All compounds were dispensed from initial 10 mM DMSO stocks. An industry standard +60/−40 mV voltage protocol was applied every 15 seconds. Compounds were tested in a 6-point cumulative assay (final DMSO concentration 0.33%), with a concentration range of 139 nM to 40 uM. Data were analyzed in Genedata Screener®. IC50 values were determined by plotting % inhibition versus log compound concentration and using a one site dose response model. Only wells that passed acceptance criteria for this platform were used in this analysis (30 MegaOhm seal resistance, Z prime >0.4 and current size >0.2 nA).

MV4;11 cells = test: Proliferation assay, MV4;11 (CellTiter-Glo, 7 days); type: cell-based, human; conditions: read-out: MV-4-11 IC50
Procedure: (§1) The anti-proliferative effect of compounds was tested in human leukaemia cell lines. The cell lines […] and MV4; 11 each harbor an MLL translocation expressing the MLL fusion proteins MLL-AF9 and MLL-AF4, respectively. Each also express the wildtype protein from the second allele. OCI-AML3 cells carrying the NPM1c gene mutation were also tested.
(§2) MOLM-13 and HEL cells were cultured in RPMI 1640 (Gibco) supplemented with 10% FBS (Gibco) and 1% Pen/Strep (Gibco). MV4; 11 cells were cultured in IMDM (Gibco) supplemented with 10% FBS (Gibco) and 1% Pen/Strep (Gibco). OCI-AML3 cells were cultured in MEMa (Gibco) supplemented with 20% FBS (Gibco) and 1% Pen/Strep (Gibco).
(§3) To assess proliferative effects, 125 MOLM-13 cells, 300 MV4; 11 cells, 75 OCI-AML3 cells, and 200 HEL cells were seeded in 40 μL media per well in 384-well ViewPlates (Perkin Elmer, 6007480). Cell seeding numbers were chosen based on growth curves to ensure linear growth throughout the experiments. Test compounds were added at 3.16-fold serial dilutions in DMSO from […] and DMSO content was normalized to 0.1%. Cells were incubated for 7 days at 37° C. and 5% CO2. A day 0 plate was seeded for each cell line and used as a standard control.
(§4) To measure cell viability, CellTiter-Glo 2.0 (Promega, G9242) luminescent growth indicator was used. 10 μL CellTiter-Glo reagent was added per well. Plates were placed on a plate shaker for 2 minutes in the dark and left to incubate off the shaker for another 8 minutes in the dark, for a total of 10 minutes. Plates were read using an EnVision plate reader (Perkin Elmer) using the Luminescence aperture and a measurement time of 0.1 second.
(§5) Data were analyzed in Genedata Screener®. IC50 values were determined by plotting % inhibition versus log compound concentration and using a one site dose response model. Raw data signals were normalized using 0.1% DMSO media only as background control, 0.1% DMSO with cells no compound as 100% viability (maximum signal), and day 0 0.1% DM with cells no compound as 0% viability (minimum signal).

hERG [3] = target: T1, hERG; test: hERG assay 2, QPatch II 48X, room temperature; type: cell-based; conditions: hERG DUO cell line, top 200 μM
Procedure: Experiments were performed on the QPatch II 48X (Sophion Biosciences) high throughput patch clamp platform at room temperature and used single hole Qplates. hERG DUO cell line (BSys) was used. The internal patch clamp solution was KF 60 mM, KCl 70 mM, HEPES 10 mM, EGTA 10 mM, and 5 mM Mg ATP (pH7.2). After sealing and whole cell access was gained the external solution (NaCl 140 mM, KCl 4 mM, HEPES 10 mM, CaCl2 2 mM, MgCl2 1 mM, glucose 5 mM (pH 7.4) was applied twice to establish stable baseline currents. An industry standard +40/−40 mV voltage protocol was applied every 15 seconds. All compounds were tested in a 6-point cumulative assay (final DMSO concentration 0.4-2% depending on stock concentration of compounds). Compounds were dispensed from initial 10 mM or 50 mM DMSO stocks after which DMSO dilutions were undertaken with a top concentration of 200 μM tested. Solvent controls were run in all experiments in line with the DMSO % required. Only wells that passed acceptance criteria for this platform were used in this analysis (500 MegaOhm seal resistance and current size >0.2 nA). Analysis was completed in Prism Graphpad to complete a composite IC50, by plotting % inhibition versus log compound concentration and using a log(inhibitor) vs. response—Variable slope.

HEL cells = test: Proliferation assay, HEL control cell line (CellTiter-Glo, 7 days); type: cell-based, human; conditions: Homo sapiens, HEL, 168 h
Procedure: as §1, §2, §3, §4, §5

MOLM-13 cells = test: Proliferation assay, MOLM-13 (CellTiter-Glo, 7 days); type: cell-based, human
Procedure: as §1, §2, §3, §4, §5

OCI-AML3 cells = test: Proliferation assay, OCI-AML3 (CellTiter-Glo, 7 days); type: cell-based, human; conditions: Homo sapiens, OCI-AML-3, 168 h
Procedure: as §1, §2, §3, §4, §5

[4] = Caco-2 cell monolayers intrinsic permeation assay in the presence of efflux inhibitors; type: in vitro ADME; conditions: Caco-2, with efflux inhibitors
Excerpt: Caco-2 cells were obtained from American Type Culture Collection (ATCC). HEPES, penicillin, streptomycin, bovine serum albumin (BSA) were obtained from Beijing Xinjingke Biotechnology Co, Ltd. Fetal bovine serum, Hank's balanced salt solution (HBSS) and non-essential amino acids (NEAA) were purchased from Gibco. Dulbecco's Modified Eagle's Medium (DMEM) was purchased from Corning and MES from Sigma. HTS Transwell-24 permeable supports were purchased from Corning. Zosuquidar and Ko-143 were obtained from MedChemExpress and Benzbromarone from Sigma.
The Caco-2 cell culture medium consisted of DMEM with high glucose and L-glutamine supplemented with 10% FBS, 0.1 mg/mL streptomycin, 100 units of penicillin, 0.6 mg/mL kanamycin sulfate and 1×NEAA. […] culture medium was added to each Transwell insert with 800 mL added to each well of the reservoir. After incubation at 37° C. in 5% CO2 for 1 hour, the plates were ready for seeding.
The cells were cultivated in T-75 flasks at 37° C., 5% CO2, 95% relative humidity. At 80 to 90% confluence, cells were treated with trypsin/EDTA treatment until they became detached. The trypsin/EDTA was inactivated by adding excess serum containing medium. The cell suspension was centrifuged at 120 g for 10 minutes followed by resuspension of the cell pellet in seeding medium at a cell density of 7.92×10^5 cells/mL.
[…] of the resulting cell suspension was added to each well of the Transwell plate and incubated for 14 to 18 days, with medium replaced every other day. After incubation for 14 to 18 days, the cells should have reached confluence and should be tested for electrical resistance using a Millicel Epithelial Volt-Ohm measuring system (Millipore).
The cell monolayers were washed twice with pre-warmed HBSS and incubated at 37° C. for 30 minutes under gentle shaking (480 rpm).
The compound under test was presented as a 10 mM DMSO stock solution. 2 mL of the 10 mM stock was added to 8 mL DMSO to produce a 2 mM stock. 2 mL was added to 398 mL of HBSS containing 10 mM Zosuquidar, 30 mM Benzbromarone and 2 mM KO-143 to make a […] solution.
210 mL of the test compound solution was added to the apical compartment of the Transwell plate, with a 10 mL sample taken to act as the time 0 sample. The wells of the receiver (basolateral) compartment were filled with 800 mL HBSS (containing the efflux inhibitors). The plates were incubated at 37° C. with shaking at 480 rpm for 120 minutes with sampling at 45 and 120 minutes.
At each sampling time (0, 45 and 120 minutes) 10 mL was removed from the apical compartment and add to 90 mL (HBSS containing the efflux inhibitors). 100 mL was removed from each basolateral compartment. 3 volumes of cold acetonitrile containing internal standard was added to each sample and vortex mixed for 10 minutes at 100 rpm. Samples were then centrifuged at 400 rpm for 20 minutes. 50 mL of the supernatant was taken for LC/MS/MS analysis to determine compound concentration.
The apparent permeability (Papp), in units of centimetre per second, were calculated for Caco-2 drug transport using the following equation: […]
Where CR is the concentration of compound in the receiver side at the respective time point, CD is the concentration of compound in the donor side at the respective timepoint. Area is the surface area of the membrane and time is 4500 seconds (75×60 seconds).

T1 sequence (Q12809 whole entry): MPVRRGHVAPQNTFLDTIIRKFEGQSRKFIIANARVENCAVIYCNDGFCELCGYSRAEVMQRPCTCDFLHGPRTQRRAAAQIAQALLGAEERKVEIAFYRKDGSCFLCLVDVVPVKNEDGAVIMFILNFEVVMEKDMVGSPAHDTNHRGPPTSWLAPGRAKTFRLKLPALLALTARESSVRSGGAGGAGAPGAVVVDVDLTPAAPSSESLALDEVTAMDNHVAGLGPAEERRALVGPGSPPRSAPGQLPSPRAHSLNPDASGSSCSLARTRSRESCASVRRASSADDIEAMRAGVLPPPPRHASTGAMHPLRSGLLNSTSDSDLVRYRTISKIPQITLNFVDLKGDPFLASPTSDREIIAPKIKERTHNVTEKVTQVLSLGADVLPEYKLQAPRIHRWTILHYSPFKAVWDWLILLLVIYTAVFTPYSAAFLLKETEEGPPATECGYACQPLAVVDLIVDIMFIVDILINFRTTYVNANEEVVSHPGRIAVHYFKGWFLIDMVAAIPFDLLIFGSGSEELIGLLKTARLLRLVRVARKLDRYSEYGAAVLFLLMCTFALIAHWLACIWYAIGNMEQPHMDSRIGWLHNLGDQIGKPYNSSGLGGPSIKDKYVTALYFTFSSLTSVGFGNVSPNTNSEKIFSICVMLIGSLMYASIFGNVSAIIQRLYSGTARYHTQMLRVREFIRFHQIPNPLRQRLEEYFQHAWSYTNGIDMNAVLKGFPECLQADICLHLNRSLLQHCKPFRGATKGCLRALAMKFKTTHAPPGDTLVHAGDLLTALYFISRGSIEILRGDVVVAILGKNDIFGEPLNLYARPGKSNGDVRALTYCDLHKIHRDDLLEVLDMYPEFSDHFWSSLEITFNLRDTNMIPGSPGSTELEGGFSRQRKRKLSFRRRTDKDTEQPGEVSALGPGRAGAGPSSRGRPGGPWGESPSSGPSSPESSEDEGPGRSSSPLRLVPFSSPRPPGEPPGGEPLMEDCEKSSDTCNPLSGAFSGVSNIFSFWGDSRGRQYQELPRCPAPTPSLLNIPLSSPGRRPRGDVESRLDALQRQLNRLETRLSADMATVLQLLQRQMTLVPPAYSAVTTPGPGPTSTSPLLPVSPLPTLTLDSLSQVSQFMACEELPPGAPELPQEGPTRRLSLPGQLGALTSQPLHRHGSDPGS

Structure (SMILES) | HLM CLint ([1]; 1 mg/mL HLM, NADPH) [µL/min/mg] | IC50 (hERG [2]) [nM] | IC50 (MV4;11 cells) [nM] | IC50 (hERG [3]) [nM] | IC50 (HEL cells) [nM] | IC50 (MOLM-13 cells) [nM] | IC50 (OCI-AML3 cells) [nM] | microsomal CLint at 1 µM [1] [µL/min/mg] | IC50 (MV4;11 cells; Homo sapiens, MV4-11, 168 h) [nM] | Papp A→B [4] [×10⁻⁶ cm/s] | IC50 (MOLM-13 cells; Homo sapiens, MOLM-13, 168 h) [nM]
CCN(C(=O)c1cc(F)ccc1-n1c(C)c(C(=O)C2CCN(C(=O)[C@@H]3CCC4(CC4)N3)CC2)c2ccncc21)C(C)C (single isomer, unassigned) [Example 49-1] | >300 | > 40000 | 2950 | > 200000 | > 10000 | 2290 |  |  |  |  | 
C[C@@H]1CC[C@H](C)N1C(=O)c1cc(F)ccc1-n1cc(C(=O)C2CCN(C(=O)[C@H]3N[C@@H]4CC[C@H]3C4)CC2)c2ccncc21 [Example 32, (1-((1R,3S,4S)-2-Azabicyclo[2.2.1]heptane-3-carbonyl)piperidin-4-yl)(1-(2-((2R,5S)-2,5-dimethylpyrrolidine-1-carbonyl)-4-fluorophenyl)-1H-pyrrolo[2,3-c]pyridin-3-yl)methanone] |  |  |  |  | > 10000 |  | 275 | 18 | 144 | 0.4 | 154
C[C@@H]1COC[C@H](C)N1C(=O)c1cc(F)ccc1-n1cc(C(=O)C2CCN(C(=O)[C@H]3N[C@@H]4CC[C@H]3C4)CC2)c2ccncc21 [Example 35, (1-((1R,3S,4S)-2-Azabicyclo[2.2.1]heptane-3-carbonyl)piperidin-4-yl)(1-(2-((3R,5S)-3,5-dimethylmorpholine-4-carbonyl)-4-fluorophenyl)-1H-pyrrolo[2,3-c]pyridin-3-yl)methanone] |  |  |  |  | > 10000 |  | 412 | 5 | 146 |  | 297
CC(C)c1ccccc1-c1cc(F)ccc1-n1cc(C(=O)C2CCN(C(=O)[C@H]3N[C@@H]4CC[C@H]3C4)CC2)c2ccncc21 [Example 39, (1-((1R,3S,4S)-2-Azabicyclo[2.2.1]heptane-3-carbonyl)piperidin-4-yl)(1-(5-fluoro-2′-isopropyl-[1,1′-biphenyl]-2-yl)-1H-pyrrolo[2,3-c]pyridin-3-yl)methanone] |  |  |  |  | 6900 |  | 47 | 259 | 31 |  | 65

— patent US20240335431A1, “1-H-PYRROLO[2,3-c]PYRIDINE COMPOUNDS” (Acerta Pharma B.V., priority 2023, published 2024)
